The target of test [1] is T1, monoamine oxidase B (MAO-B) (Rattus norvegicus, UniProt P19643).
T1 construct: from tissue; host or cells: brain cortex of male F344/N rats (supernatant of homogenate)
T1 sequence (P19643 1-520): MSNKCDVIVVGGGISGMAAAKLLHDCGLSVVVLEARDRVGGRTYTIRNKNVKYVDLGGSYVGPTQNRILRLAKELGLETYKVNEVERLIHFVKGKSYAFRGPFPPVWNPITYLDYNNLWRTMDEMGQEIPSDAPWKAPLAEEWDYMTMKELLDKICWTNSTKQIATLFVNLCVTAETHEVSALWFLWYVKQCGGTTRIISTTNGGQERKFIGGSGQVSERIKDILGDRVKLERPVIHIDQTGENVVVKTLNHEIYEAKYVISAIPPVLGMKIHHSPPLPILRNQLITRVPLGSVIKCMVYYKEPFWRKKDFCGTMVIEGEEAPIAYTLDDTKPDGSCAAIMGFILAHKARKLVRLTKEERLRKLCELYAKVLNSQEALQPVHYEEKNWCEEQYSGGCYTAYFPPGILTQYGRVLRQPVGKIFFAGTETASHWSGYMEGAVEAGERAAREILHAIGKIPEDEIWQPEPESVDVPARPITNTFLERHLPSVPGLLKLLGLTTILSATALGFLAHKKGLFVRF
Nature of the test: biochemical. On the procedure: At first, monoamine oxidase B (MAO-B) was purified from rat brain cortex, and then activity inhibition assay of these derivatives against monoamine oxidase B(MAO-B) was carried out.
MAO-B enzyme preparations were prepared from brain cortex of decapitalized male F344/N rats. The brain cortex in PBS solution was frozen with liquid nitrogen and kept at −80° C. for 3 days. The homogenate was then obtained by centrifugation (14,000 rpm, 10 min) of the frontal cortex in 0.1 M potassium phosphate buffer (pH 7.4) at 4° C. and the supernatant was taken as the enzyme source for MAO. A standard solution containing 0.1 M potassium phosphate buffer and albumin were prepared in different concentration grades. Ten microliters of each solution was taken and added with 200 μl of BCA kit. Following the similar method, the above supernatant from brain cortex was diluted and 10 μl of stock solution taken and added with […] of BCA kit. Both standard and sample solutions were incubated at 37° C. for 30 min. 200 μl of the solutions was added to each well of a 96-well microplate and the protein contents were measured with a fluorescence microplate reader by determining optical density at 595 nm.
To the supernatant (protein content, 80 μg/ml) in 96-well microplate was added with 1 U/ml HRP (Horseradish Peroxidase), […] benzylamine, and 50 μM Amplex red in 0.1 M potassium phosphate buffer followed by the tested sample, which was prepared in 200 μg/ml in DMSO as stock solution. These mixtures were incubated at room temperature for 60 min and optical density was determined by a fluorometric reader. Its IC50 was calculated then with the following formula. IC50: median inhibitory concentration, which is defined in this example as the concentration of a inhibitor that is needed for inhibiting 50% activity of an enzyme. Inhibition (%)=1−[(OD595 of sample/protein−[…] of sample)/OD595 of blank]×100% • OD595: Optical density at 595 nm (wavelength) • protein: protein content of control 3. Statistical Analysis

Another test concerns the target T2, γ-secretase (Homo sapiens, UniProt P49768).
T2 construct: measure the activity of γ-secretase in T-20 cell line; endogenous in cells; host or cells: T-20 (T-REx293/HEK293 stably transfected with C99-GV/TO and Gal4-Luc)
The test can be described thus: Cell-based γ-secretase assay (luciferase reporter) in T-20 cell line. For orientation: In a reporter assay the amount or activity of a reporter protein is the signal.

The test system of the next test is ERK1/2. Nature of the test: Assay for extracellular signal-regulated kinase (ERK) activity (Western blot p-ERK1/2 / ERK1/2). The settings on record: for Activation of ERK1/2 (p-ERK/ERK, (%)): 10 μM, T-20 cells, positive control = 100, mean ± SD of three experiments. The class given is cell-based, Human. On the procedure:
Cell line used in this example were same as those described in example 2.
The activation of the ERKs was measured by using anti-phospho-ERK1/2 and anti-ERK1/2 antibodies (Cell Signaling Technology). In brief, T-20 cells were grown in six-well plates at 5×10^5 cells/well and incubated with culture medium at 37° C. for 18 hours, followed by an additional incubation with culture medium containing 1 μg/ml of tetracycline at 37° C. for 18 hours. Before the experiments, we replaced the medium with DMEM containing 0.5% FBS and treated it with the tested compounds (10 μM each). After treatment, reactions were stopped by placing cells on ice and aspirating off the medium. Cells were harvested and lysed in 50 mM Tris-HCl (pH 8.0), 150 mM NaCl, 5 mM EDTA, 1 mM sodium orthovanadate, 1% Triton X-100, and protease- and phosphatase-inhibitor cocktails. Protein concentration was determined by the BCA assay (Pierce). Each cell lysate, which contained 50 μg proteins, was separated on 12% SDS-polyacrylamide electrophoresis gels, immunoblotted, and identified using anti-phospho-ERK1/2 or anti-ERK1/2 antibody. In this example, T-20 cell line treated with medium containing 1% DMSO and 1 μg/ml of tetracycline was used as positive control group; T-20 cell line treated with medium containing various compounds (10 μM), 1% DMSO and 1 μg/ml of tetracycline were used as test groups for different compounds.
In general terms: In western blotting, separated proteins are transferred to a membrane and probed.

Test [2] deals with soluble amyloid precursor protein α (sAPPα). Nature of the test: Effect on secretion of sAPPα in γ-30 cells (Western blot, 6E10 antibody). The settings on record: 10 μM; for protein content of sAPPα detected by Western blot: FIG. 4A. The class given is cell-based, Chinese hamster. On the procedure: It is known that monoamine oxidase B (MAO-B) inhibitor can activate directly or indirectly ERK-related pathway, so as to regulate amyloid precursor protein (APP) proteolytic process, which lead to modulate indirectly the secretion of soluble amyloid precursor protein α (sAPPα), and inhibit indirectly the production of insoluble β amyloid-peptides (Aβ). […] Thus, in this example, assay was carried out in γ-30 cells to examine the effect of 1,2,3,4-tetrahydroisoquinoline derivatives (12a, c and d) on the secretion of sAPPα.
As described in reference (3) and (6), briefly described below. PS70 Chinese hamster ovary cell (CHO cell) was used to perform a transfection to obtain γ-30 stably transfected cell line, γ-30 stably transfected cell line was used to express then full length amyloid precursor protein (APP) and human PS1, Aph-1α2, and Pen-2 proteins (Human PS, Aph-1α2, and Pen-2). This cell line could be used as the ideal model cell for detecting α-secretase degradation of amyloid precursor protein (APP).
Each group of corresponding cell lysate in example 5 was prepared to identical protein content. Proteins with different molecular weight were separated by means of electrophoresis on SDS-PAGE and Western Blot assay was carried using anti-Aβ1-17 monoclonal antibody (6E10) (purchased from US Chemicom Co.). In this example, γ-30 cell line treated with medium containing 1% DMSO was used as negative control group, γ-30 cell lines treated with medium containing different compounds (10 μM), 1% DMSO and 1 μg/ml of tetracycline were used as test group for different compounds, respectively.
γ-30 stably transfected cell line expresses full length amyloid precursor protein (APP) and human PS1, Aph-1α2, and Pen-2 proteins. When α-secretase cleavages amyloid precursor protein (APP), soluble amyloid precursor protein α (sAPPα) is formed, which can be used to detect whether a compound has an effect on the secretion of soluble amyloid precursor protein α (sAPPα). To this end, Western blot assay using Aβ1-17 monoclonal antibody (6E10) was carried out to detect soluble amyloid precursor protein α (sAPPα). […] Thereafter, results from Western blot assay were subjected to quantitatively statistical analysis.

[3] abbreviates: T20, read-out: inhibition of the activity of γ-secretase compared with positive control group.

Read-outs that look alike come from different tables or passages of the source.

Experimental for γ-secretase: In this example, a quantitative cell-based assay described in reference (2) and (3) was employed to measure the activity of γ-secretase in T-20 cell line.
Cell lysis and the addition of reagents for luciferase assay were completed simultaneously using the Steady-Glo luciferase assay system (Promega) as described in the manufacturer's instructions. Luciferase signals were determined by a VictorLight microplate luminometer (PerkinElmer).
A quantitative cell-based γ-secretase assay in T-20 cell line described in reference (2) was employed to measure the activity of γ-secretase. In this example, said assay and cell line thereof was used to measure effect of 1,2,3,4-tetrahydroisoquinoline derivatives on the activity of γ-secretase.
T-20 cells were routinely maintained in DMEM supplemented with 10% FBS, 200 μg/ml of hygromycin, 5 μg/ml of blasticidin, and 250 μg/ml of zeocin (DMEM-HZB). The stably transfected T-20 cells were detached from culture dishes by trypsinization, washed with PBS, and resuspended in DMEM-HZB, followed by plating onto 96-well microplates (2×10^4 cells/50 μl/well) and incubating at 37° C. for 24 hours. Preliminarily, compounds diluted in DMEM-HZB were added to a final concentration of 10 μM in the presence of tetracycline (1 μg/ml). Treatments were terminated after incubation at 37° C. for 24 hours by adding directly an equivalent volume of the Steady-Glo luciferase assay reagent (Promega), and measurements of luciferase signals from each well were performed immediately with the VictorLight microplate luminometer) (PerkinElmer). Triplicates of each compound treatment were assayed. Luciferase signal from the stable line without tetracycline induction and compound treatment was referred to as one-fold of activation. Parallel testing with a cell line constitutively expressing only the luciferase reporter gene (e.g., under control of a CMV promoter) was performed as a control.
Briefly, T-20 cell line was induced by tetracycline to express C99-GV protein fragment on cell membrane.

On to `C#CCN1CCc2ccc(OC(=O)N(C)CC)cc2C1` [Compound 11a, 7-(N-Methyl-N-ethylcarbamoyloxy)-N-propargyl-1,2,3,4-tetrahydroisoquinoline], for which, in test [1], 21.5 ± 1 µM corresponded to half-maximal inhibition (IC50).

As for `C#CCN1CCc2ccc(OC(=O)N3CCCC3)cc2C1` [Compound 11b, 7-(1-Pyrrolidinecarbamoyloxy)-N-propargyl-1,2,3,4-tetrahydroisoquinoline], it took 13.9 ± 0.5 µM to reach half-maximal inhibition in test [1] (IC50).

Take `C#CCN1CCc2ccc(OC(=O)N3CCCCC3)cc2C1` [Compound 11c, 7-(1-Piperidinecarbamoyloxy)-N-propargyl-1,2,3,4-tetrahydroisoquinoline]: the IC50 (as a rule, the midpoint of a concentration-inhibition curve) in test [1] is 15.7 ± 2.2 µM.

For the molecule `C#CCN1CCc2ccc(OC(=O)N3CCOCC3)cc2C1` [Compound 11d, 7-(1-Morpholinecarbamoyloxy)-N-propargyl-1,2,3,4-tetrahydroisoquinoline], the half-inhibitory concentration (IC50) in test [1] was 18.7 ± 1.6 µM.

In the case of `CCN(C)C(=O)Oc1ccc2c(c1)CN(CC1CC1)CC2` [Compound 12a, 7-(N-Methyl-N-ethylcarbamoyloxy)-N-cyclopropylmethyl-1,2,3,4-tetrahydroisoquinoline], at γ-secretase (setting [3]), the inhibition – broadly, the share of the control response that was lost under treatment – at 10 µM was 35 to 72%. For the same molecule, the IC50 in test [1] was 12.8 ± 2 µM. Further, the “Activation of ERK1/2 (p-ERK/ERK, (%))” value with ERK1/2 is 131 ± 10%. Moreover, the “protein content of sAPPα detected by Western blot” value (“protein content of sAPPα detected” for short) in test [2] is “higher than that of negative control group”. Also, in test [2] (FIG. 4B), the “relative sAPPα secretion (quantified Western blot)” value (from here on “relative sAPPα secretion”) is “could promote the secretion”.

Molecule `O=C(Oc1ccc2c(c1)CN(CC1CC1)CC2)N1CCCC1` [Compound 12b, 7-(1-Pyrrolidinecarbamoyloxy)-N-cyclopropylmethyl-1,2,3,4-tetrahydroisoquinoline] registered a half-maximal inhibitory concentration (IC50) in test [1] of 14.9 ± 1.1 µM.

On to `O=C(Oc1ccc2c(c1)CN(CC1CC1)CC2)N1CCCCC1` [Compound 12c, 7-(1-Piperidinecarbamoyloxy)-N-cyclopropylmethyl-1,2,3,4-tetrahydroisoquinoline], for which, at γ-secretase (setting [3]), the inhibition at 10 µM is 35 to 72%. In test [1], this molecule came in with an IC50 of 11.6 ± 0.7 µM. Also, the “ability to activate ERK relative to rasagiline test group” value in the test with ERK1/2 (10 μM each) is 1.2 times. Besides, the “Activation of ERK1/2 (p-ERK/ERK, (%))” value with ERK1/2 is on record as 155 ± 28 %. In test [2], the “protein content of sAPPα detected” value is “higher than that of negative control group”. Also, in test [2] (FIG. 4B), the “promotion of sAPPα secretion compared with rasagiline test group” value was “better promotion effect than rasagiline test group” and the “relative sAPPα secretion” value was “could promote the secretion”.

In the case of `O=C(Oc1ccc2c(c1)CN(CC1CC1)CC2)N1CCOCC1` [Compound 12d, 7-(1-Morpholinecarbamoyloxy)-N-cyclopropylmethyl-1,2,3,4-tetrahydroisoquinoline], on γ-secretase (setting [3]), the inhibition at 10 µM was in the range of 35 to 72%. For the same molecule, the IC50 in test [1] was determined as 18.5 ± 0.8 µM. Further, in the test with ERK1/2, the “Activation of ERK1/2 (p-ERK/ERK, (%))” value is recorded as 138 ± 39%. For the same molecule, in test [2], the “protein content of sAPPα detected” value is “higher than that of negative control group”. Further, the “relative sAPPα secretion” value in test [2] (FIG. 4B) is reported as “could promote the secretion”.

For `C#CCN[C@@H]1CCc2ccccc21` [Rasagiline, rasagiline, reference compound], the inhibition at 10 µM at γ-secretase (T20, 10 μM, T-20 cells, 24 hours, tetracycline 1 μg/ml, FIG. 2, read-out: inhibition of the activity of γ-secretase compared with positive control group) fell in the range of 6 to 15%. Also, in the test with ERK1/2, the “Activation of ERK1/2 (p-ERK/ERK, (%))” value is reported as 131 ± 14%.

Source of the values: patent US8173648B2 (priority 2008, dated 2012).
